Measured values taken from the supplement of paper PMC10307832.

What was measured:
Assay in all cases: relative viability (nuclei count vs DMSO), 5 days (fraction); higher = more cells survive
Decitabine + Trametinib = compound: Nc1ncn([C@H]2C[C@H](O)[C@@H](CO)O2)c(=O)n1 [Decitabine] + CC(=O)Nc1cccc(-n2c(=O)n(C3CC3)c(=O)c3c(Nc4ccc(I)cc4F)n(C)c(=O)c(C)c32)c1 [Trametinib] (partner 0.02 µM)
In short: (§1)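 Relative viability is defined as nuclei in treated wells over nuclei in vehicle wells. Duplicate plates were run and medians reported. Lung cancer cell lines in 1536-well plates were dosed by pin tool one day after seeding, with one drug or with a fixed anchor-drug dose plus five library-drug doses (not always all listed) in √10 steps, and nuclei were counted after 5 days.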

Decitabine + Vorinostat = compound: Nc1ncn([C@H]2C[C@H](O)[C@@H](CO)O2)c(=O)n1 [Decitabine] + O=C(CCCCCCC(=O)Nc1ccccc1)NO [Vorinostat] (partner 1 µM)
In short: as §1

Halofuginone + Lapatinib = compound: O=C(C[C@H]1NCCC[C@@H]1O)Cn1cnc2cc(Br)c(Cl)cc2c1=O (racemic) [Halofuginone] + CS(=O)(=O)CCNCc1ccc(-c2ccc3ncnc(Nc4ccc(OCc5cccc(F)c5)c(Cl)c4)c3c2)o1 [Lapatinib] (partner 2 µM)
In short: as §1

[1] = compound: O=C(C[C@H]1NCCC[C@@H]1O)Cn1cnc2cc(Br)c(Cl)cc2c1=O (racemic) [Halofuginone] + CC(C)C[C@H](NC(=O)[C@H](Cc1ccccc1)NC(=O)c1cnccn1)B(O)O [Bortezomib] (partner 0.002 µM)
In short: as §1

NCI-H1395
relative viability (Decitabine + Trametinib; first compound 0.04 µM): 0.793 | relative viability (Decitabine + Trametinib; first compound 0.1265 µM): 0.906 | relative viability (Decitabine + Trametinib; first compound 0.4 µM): 0.828 | relative viability (Decitabine + Trametinib; first compound 1.265 µM): 0.655 | relative viability (Decitabine + Trametinib; first compound 4 µM): 0.607 | relative viability (Decitabine + Vorinostat; first compound 0.04 µM): 0.548 | relative viability (Decitabine + Vorinostat; first compound 0.1265 µM): 0.634 | relative viability (Decitabine + Vorinostat; first compound 0.4 µM): 0.605 | relative viability (Decitabine + Vorinostat; first compound 1.265 µM): 0.429 | relative viability (Decitabine + Vorinostat; first compound 4 µM): 0.524 | relative viability (Halofuginone + Lapatinib; first compound 0.001 µM): 1.02 | relative viability (Halofuginone + Lapatinib; first compound 0.003162 µM): 0.873 | relative viability (Halofuginone + Lapatinib; first compound 0.01 µM): 1.04 | relative viability (Halofuginone + Lapatinib; first compound 0.03162 µM): 0.891 | relative viability (Halofuginone + Lapatinib; first compound 0.1 µM): 0.71

NCI-H1563
relative viability ([1]; first compound 0.001 µM): 0.708 | relative viability ([1]; first compound 0.003162 µM): 0.885 | relative viability ([1]; first compound 0.01 µM): 0.686 | relative viability ([1]; first compound 0.03162 µM): 0.585 | relative viability ([1]; first compound 0.1 µM): 0.515 | relative viability (Halofuginone + Lapatinib; first compound 0.001 µM): 0.757 | relative viability (Halofuginone + Lapatinib; first compound 0.003162 µM): 0.853 | relative viability (Halofuginone + Lapatinib; first compound 0.01 µM): 0.879 | relative viability (Halofuginone + Lapatinib; first compound 0.03162 µM): 0.627 | relative viability (Halofuginone + Lapatinib; first compound 0.1 µM): 0.506

NCI-H1648
relative viability (Decitabine + Trametinib; first compound 0.04 µM): 0.442 | relative viability (Decitabine + Trametinib; first compound 0.1265 µM): 0.462 | relative viability (Decitabine + Trametinib; first compound 0.4 µM): 0.452 | relative viability (Decitabine + Trametinib; first compound 1.265 µM): 0.379 | relative viability (Decitabine + Trametinib; first compound 4 µM): 0.355 | relative viability (Decitabine + Vorinostat; first compound 0.04 µM): 0.384 | relative viability (Decitabine + Vorinostat; first compound 0.1265 µM): 0.386 | relative viability (Decitabine + Vorinostat; first compound 0.4 µM): 0.305 | relative viability (Decitabine + Vorinostat; first compound 1.265 µM): 0.249 | relative viability (Decitabine + Vorinostat; first compound 4 µM): 0.315

NCI-H1703
relative viability ([1]; first compound 0.001 µM): 0.363 | relative viability ([1]; first compound 0.003162 µM): 0.333 | relative viability ([1]; first compound 0.01 µM): 0.305 | relative viability ([1]; first compound 0.03162 µM): 0.282 | relative viability ([1]; first compound 0.1 µM): 0.224 | relative viability (Halofuginone + Lapatinib; first compound 0.001 µM): 1.15 | relative viability (Halofuginone + Lapatinib; first compound 0.003162 µM): 1.28 | relative viability (Halofuginone + Lapatinib; first compound 0.01 µM): 0.95 | relative viability (Halofuginone + Lapatinib; first compound 0.03162 µM): 0.792 | relative viability (Halofuginone + Lapatinib; first compound 0.1 µM): 0.427

NCI-H1792
relative viability ([1]; first compound 0.001 µM): 0.965 | relative viability ([1]; first compound 0.003162 µM): 1.01 | relative viability ([1]; first compound 0.01 µM): 1.01 | relative viability ([1]; first compound 0.03162 µM): 0.942 | relative viability ([1]; first compound 0.1 µM): 0.866 | relative viability (Decitabine + Trametinib; first compound 0.04 µM): 0.432 | relative viability (Decitabine + Trametinib; first compound 0.1265 µM): 0.359 | relative viability (Decitabine + Trametinib; first compound 0.4 µM): 0.477 | relative viability (Decitabine + Trametinib; first compound 1.265 µM): 0.257 | relative viability (Decitabine + Trametinib; first compound 4 µM): 0.193 | relative viability (Halofuginone + Lapatinib; first compound 0.001 µM): 0.897 | relative viability (Halofuginone + Lapatinib; first compound 0.003162 µM): 0.857 | relative viability (Halofuginone + Lapatinib; first compound 0.01 µM): 0.896 | relative viability (Halofuginone + Lapatinib; first compound 0.03162 µM): 0.831 | relative viability (Halofuginone + Lapatinib; first compound 0.1 µM): 0.994

NCI-H1793
relative viability (Decitabine + Trametinib; first compound 0.04 µM): 0.399 | relative viability (Decitabine + Trametinib; first compound 0.1265 µM): 0.407 | relative viability (Decitabine + Trametinib; first compound 0.4 µM): 0.463 | relative viability (Decitabine + Trametinib; first compound 1.265 µM): 0.339 | relative viability (Decitabine + Trametinib; first compound 4 µM): 0.35 | relative viability (Decitabine + Vorinostat; first compound 0.04 µM): 0.462 | relative viability (Decitabine + Vorinostat; first compound 0.1265 µM): 0.631 | relative viability (Decitabine + Vorinostat; first compound 0.4 µM): 0.552 | relative viability (Decitabine + Vorinostat; first compound 1.265 µM): 0.382 | relative viability (Decitabine + Vorinostat; first compound 4 µM): 0.325 | relative viability (Halofuginone + Lapatinib; first compound 0.001 µM): 0.775 | relative viability (Halofuginone + Lapatinib; first compound 0.003162 µM): 0.832 | relative viability (Halofuginone + Lapatinib; first compound 0.01 µM): 0.707 | relative viability (Halofuginone + Lapatinib; first compound 0.03162 µM): 0.811 | relative viability (Halofuginone + Lapatinib; first compound 0.1 µM): 0.589

NCI-H1944
relative viability (Decitabine + Trametinib; first compound 0.04 µM): 0.435 | relative viability (Decitabine + Trametinib; first compound 0.1265 µM): 0.441 | relative viability (Decitabine + Trametinib; first compound 0.4 µM): 0.369 | relative viability (Decitabine + Trametinib; first compound 1.265 µM): 0.254 | relative viability (Decitabine + Trametinib; first compound 4 µM): 0.256 | relative viability (Decitabine + Vorinostat; first compound 0.04 µM): 0.505 | relative viability (Decitabine + Vorinostat; first compound 0.1265 µM): 0.486 | relative viability (Decitabine + Vorinostat; first compound 0.4 µM): 0.424 | relative viability (Decitabine + Vorinostat; first compound 1.265 µM): 0.265 | relative viability (Decitabine + Vorinostat; first compound 4 µM): 0.299 | relative viability (Halofuginone + Lapatinib; first compound 0.001 µM): 0.709 | relative viability (Halofuginone + Lapatinib; first compound 0.003162 µM): 0.835 | relative viability (Halofuginone + Lapatinib; first compound 0.01 µM): 0.852 | relative viability (Halofuginone + Lapatinib; first compound 0.03162 µM): 0.825 | relative viability (Halofuginone + Lapatinib; first compound 0.1 µM): 0.675

NCI-H2170
relative viability (Decitabine + Trametinib; first compound 0.04 µM): 0.651 | relative viability (Decitabine + Trametinib; first compound 0.1265 µM): 0.639 | relative viability (Decitabine + Trametinib; first compound 0.4 µM): 0.587 | relative viability (Decitabine + Trametinib; first compound 1.265 µM): 0.41 | relative viability (Decitabine + Trametinib; first compound 4 µM): 0.282 | relative viability (Decitabine + Vorinostat; first compound 0.04 µM): 0.582 | relative viability (Decitabine + Vorinostat; first compound 0.1265 µM): 0.568 | relative viability (Decitabine + Vorinostat; first compound 0.4 µM): 0.414 | relative viability (Decitabine + Vorinostat; first compound 1.265 µM): 0.28 | relative viability (Decitabine + Vorinostat; first compound 4 µM): 0.257 | relative viability (Halofuginone + Lapatinib; first compound 0.001 µM): 0.279 | relative viability (Halofuginone + Lapatinib; first compound 0.003162 µM): 0.296 | relative viability (Halofuginone + Lapatinib; first compound 0.01 µM): 0.259 | relative viability (Halofuginone + Lapatinib; first compound 0.03162 µM): 0.291 | relative viability (Halofuginone + Lapatinib; first compound 0.1 µM): 0.249

NCI-H2342
relative viability (Decitabine + Trametinib; first compound 0.04 µM): 0.959 | relative viability (Decitabine + Trametinib; first compound 0.1265 µM): 1.03 | relative viability (Decitabine + Trametinib; first compound 0.4 µM): 0.88 | relative viability (Decitabine + Trametinib; first compound 1.265 µM): 0.606 | relative viability (Decitabine + Trametinib; first compound 4 µM): 0.72 | relative viability (Decitabine + Vorinostat; first compound 0.04 µM): 0.755 | relative viability (Decitabine + Vorinostat; first compound 0.1265 µM): 0.798 | relative viability (Decitabine + Vorinostat; first compound 0.4 µM): 0.728 | relative viability (Decitabine + Vorinostat; first compound 1.265 µM): 0.542 | relative viability (Decitabine + Vorinostat; first compound 4 µM): 0.522

SK-MES-1
relative viability (Decitabine + Trametinib; first compound 0.04 µM): 0.485 | relative viability (Decitabine + Trametinib; first compound 0.1265 µM): 0.595 | relative viability (Decitabine + Trametinib; first compound 0.4 µM): 0.453 | relative viability (Decitabine + Trametinib; first compound 1.265 µM): 0.345 | relative viability (Decitabine + Trametinib; first compound 4 µM): 0.382 | relative viability (Decitabine + Vorinostat; first compound 0.04 µM): 0.812 | relative viability (Decitabine + Vorinostat; first compound 0.1265 µM): 0.739 | relative viability (Decitabine + Vorinostat; first compound 0.4 µM): 0.529 | relative viability (Decitabine + Vorinostat; first compound 1.265 µM): 0.301 | relative viability (Decitabine + Vorinostat; first compound 4 µM): 0.319 | relative viability (Halofuginone + Lapatinib; first compound 0.001 µM): 0.486 | relative viability (Halofuginone + Lapatinib; first compound 0.003162 µM): 0.454 | relative viability (Halofuginone + Lapatinib; first compound 0.01 µM): 0.474 | relative viability (Halofuginone + Lapatinib; first compound 0.03162 µM): 0.409 | relative viability (Halofuginone + Lapatinib; first compound 0.1 µM): 0.342

SW 900
relative viability (Decitabine + Trametinib; first compound 0.04 µM): 0.389 | relative viability (Decitabine + Trametinib; first compound 0.1265 µM): 0.435 | relative viability (Decitabine + Trametinib; first compound 0.4 µM): 0.288 | relative viability (Decitabine + Trametinib; first compound 1.265 µM): 0.262 | relative viability (Decitabine + Trametinib; first compound 4 µM): 0.288 | relative viability (Decitabine + Vorinostat; first compound 0.04 µM): 0.333 | relative viability (Decitabine + Vorinostat; first compound 0.1265 µM): 0.42 | relative viability (Decitabine + Vorinostat; first compound 0.4 µM): 0.33 | relative viability (Decitabine + Vorinostat; first compound 1.265 µM): 0.193 | relative viability (Decitabine + Vorinostat; first compound 4 µM): 0.286
